From patent US20230265151A1, “GIP/GLP1 CO-AGONIST COMPOUNDS” (priority 2020, published 2023)
Like-named read-outs stand apart in the source and are kept apart here.

Legend:
hGCGR = target: T1, hGCGR (Homo sapiens, UniProt P47871); experiment: Functional cAMP formation (HTRF) in HEK-293 clonal cells expressing hGCGR, 0.1% bovine casein, without or with 1.0% human serum albumin; format: cell-based
T1 construct: expressed in transfected cells
Outline: (§1)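 Readings of the HTRF 665/620 nm ratio, which falls as cAMP rises, were converted to nM cAMP using a standard curve after 30 min peptide exposure at 37° C.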

[1] = target: T2, human GIP receptor (hGIPR) (Homo sapiens, UniProt P48546); experiment: [125I]-GIP binding, SPA with membranes of CHO cells expressing hGIPR
T2 construct: expressed in transfected cells; crude membranes
T2 sequence (P48546 22-466): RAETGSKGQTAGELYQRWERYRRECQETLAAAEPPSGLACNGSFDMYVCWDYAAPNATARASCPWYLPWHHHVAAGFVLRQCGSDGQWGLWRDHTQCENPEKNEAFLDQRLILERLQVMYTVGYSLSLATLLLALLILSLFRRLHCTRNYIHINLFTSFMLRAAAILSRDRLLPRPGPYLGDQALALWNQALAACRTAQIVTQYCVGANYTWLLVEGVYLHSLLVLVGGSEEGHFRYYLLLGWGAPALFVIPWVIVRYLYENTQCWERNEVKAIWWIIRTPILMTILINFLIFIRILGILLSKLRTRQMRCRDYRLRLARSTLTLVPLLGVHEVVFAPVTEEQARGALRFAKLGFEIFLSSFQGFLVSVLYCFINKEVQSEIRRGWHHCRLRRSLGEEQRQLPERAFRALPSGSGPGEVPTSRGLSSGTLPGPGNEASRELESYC

hGIPR = target: T3, hGIPR (Homo sapiens, UniProt P48546); experiment: Functional cAMP formation (HTRF) in HEK-293 clonal cells expressing hGIPR, 0.1% bovine casein, without or with 1.0% human serum albumin; format: cell-based
T3 construct: expressed in transfected cells
T3 sequence (P48546 22-466): T2 sequence (P48546 22-466)
Outline: as §1

[2] = target: T4, human GLP-1 receptor (hGLP-1R) (Homo sapiens, UniProt P43220); experiment: [125I]-GLP-1 binding, SPA with membranes of HEK293 cells expressing hGLP-1R; settings: human GLP-1R; geometric mean (SEM, n); read-out: Binding Affinity Ki, nM (SEM, n) hGLP-1R
T4 construct: expressed in transfected cells; crude membranes

hGLP-1R = hGLP-1R (Homo sapiens, UniProt P43220); experiment: Functional cAMP formation (HTRF) in HEK-293 clonal cells expressing hGLP-1R, 0.1% bovine casein, without or with 1.0% human serum albumin; format: cell-based; parameters: expressed in transfected cells; settings: for Emax: percent of maximal response to GLP-1(7-36)NH2; for EC50: cAMP
Outline: as §1

[3] = human GIPR, geometric mean (SEM, n), read-out: Binding Affinity Ki, nM (SEM, n) hGIPR
[4] = hGCGR EC50, nM (SEM, n), cAMP, 37° C., 0.1% bovine casein (no human serum albumin), geometric mean
[5] = hGCGR EC50, nM (SEM, n), cAMP, 37° C., 0.1% bovine casein and 1.0% human serum albumin, geometric mean (SEM, n)
[6] = HEK293, read-out: hGIPR Emax, % ± SEM, cAMP, 37° C., 0.1% bovine casein and 1.0% human serum albumin, percent of maximal response to GIP(1-42)NH2
[7] = hGIPR EC50, nM (SEM, n), cAMP, 37° C., 0.1% bovine casein (no human serum albumin), geometric mean
[8] = HEK293, read-out: hGLP-1R Emax, % ± SEM, cAMP, 37° C., 0.1% bovine casein, arithmetic mean
[9] = hGLP-1R EC50, nM (SEM, n), 37° C., 0.1% bovine casein (no human serum albumin), geometric mean

Sequence of hGLP-1R (P43220 24-463): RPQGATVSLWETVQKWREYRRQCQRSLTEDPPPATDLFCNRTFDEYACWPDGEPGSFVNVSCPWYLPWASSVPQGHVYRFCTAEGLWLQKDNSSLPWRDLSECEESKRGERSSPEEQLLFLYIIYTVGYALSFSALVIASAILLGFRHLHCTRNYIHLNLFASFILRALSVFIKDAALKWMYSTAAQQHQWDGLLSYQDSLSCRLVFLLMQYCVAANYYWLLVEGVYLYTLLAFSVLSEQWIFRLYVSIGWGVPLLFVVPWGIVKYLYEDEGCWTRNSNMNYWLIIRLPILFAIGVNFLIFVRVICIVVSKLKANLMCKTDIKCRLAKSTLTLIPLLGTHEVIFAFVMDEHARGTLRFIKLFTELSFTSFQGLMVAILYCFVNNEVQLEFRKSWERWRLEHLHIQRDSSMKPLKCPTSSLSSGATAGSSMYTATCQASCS
T1 sequence (P47871 26-477): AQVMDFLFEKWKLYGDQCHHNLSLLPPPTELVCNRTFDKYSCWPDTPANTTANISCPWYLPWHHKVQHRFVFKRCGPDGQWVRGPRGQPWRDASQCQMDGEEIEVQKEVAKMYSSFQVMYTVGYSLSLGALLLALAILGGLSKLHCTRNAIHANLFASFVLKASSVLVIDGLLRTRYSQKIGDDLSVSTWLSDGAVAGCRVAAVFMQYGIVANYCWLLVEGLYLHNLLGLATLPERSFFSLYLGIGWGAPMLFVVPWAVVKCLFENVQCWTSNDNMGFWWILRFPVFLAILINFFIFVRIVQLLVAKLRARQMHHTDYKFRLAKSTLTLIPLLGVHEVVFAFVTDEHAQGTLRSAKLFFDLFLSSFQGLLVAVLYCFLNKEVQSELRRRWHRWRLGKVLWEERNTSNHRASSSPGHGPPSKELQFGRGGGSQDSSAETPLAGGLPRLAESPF
T4 sequence (P43220 24-463): as the sequence (P43220 24-463) above

CC[C@H](C)[C@H](NC(=O)[C@H](CC(C)C)NC(=O)[C@](C)(Cc1ccc(O)cc1)NC(=O)[C@@H](CCC(=O)O)NC(=O)[C@@H](NC(=O)[C@H](Cc1ccccc1)NC(=O)[C@H](CCC(=O)O)NC(=O)C(C)(C)NC(=O)[C@H](CCC(N)=O)NC(=O)[C@H](C)NC(=O)[C@H](CCCCNC(=O)COCCOCCNC(=O)COCCOCCNC(=O)CC[C@H](NC(=O)CCCCCCCCCCCCC(=O)O)C(=O)O)NC(=O)[C@H](CCCN)NC(=O)[C@H](CC(=O)O)NC(=O)[C@H](CC(C)C)NC(=O)[C@](C)(CC(C)C)NC(=O)[C@@H](NC(=O)C(C)(C)NC(=O)[C@H](Cc1ccc(O)cc1)NC(=O)[C@H](CC(=O)O)NC(=O)[C@H](CO)NC(=O)[C@@H](NC(=O)[C@](C)(Cc1ccccc1F)NC(=O)[C@@H](NC(=O)CNC(=O)[C@H](CCC(=O)O)NC(=O)C(C)(C)NC(=O)[C@@H](N)Cc1ccc(O)cc1)[C@@H](C)O)[C@@H](C)O)[C@@H](C)CC)[C@@H](C)CC)C(=O)N[C@@H](CCC(=O)O)C(=O)NCC(=O)NCC(=O)N[C@@H](CCCCNC(=O)COCCOCCNC(=O)COCCOCCNC(=O)CC[C@H](NC(=O)CCCCCCCCCCCCC(=O)O)C(=O)O)C(=O)N[C@@H](CO)C(=O)N[C@@H](CO)C(=O)NCC(=O)N[C@@H](C)C(=O)N1CCC[C@H]1C(=O)N1CCC[C@H]1C(=O)N1CCC[C@H]1C(=O)N[C@@H](CO)C(N)=O [Example 50]
EC50 (hGCGR; 0.1% bovine casein and 1.0% human serum albumin, 37° C., geometric mean, read-out: hGCGR EC50, nM (SEM, n)): > 9950 nM
EC50 (hGCGR; cAMP, incubated at 37° C., 0.1% bovine casein (no human serum albumin), geometric mean, read-out: hGCGR EC50, nM (SEM, n)): > 9950 nM
Ki [1, 3]: 0.0296 nM
EC50 (hGIPR; 0.1% bovine casein and 1.0% human serum albumin, 37° C., geometric mean, read-out: hGIPR EC50, nM (SEM, n)): 1.81 nM
Emax (hGIPR; HEK293, 0.1% bovine casein and 1.0% human serum albumin, 37° C., percent of maximal response to GIP(1-42)NH2, read-out: hGIPR Emax, % ± SEM): 91.4 ± 4.2%
Emax (hGIPR; HEK293, percent of maximal response to GIP(1-42)NH2, 37° C., 0.1% bovine casein, arithmetic mean, read-out: hGIPR Emax, % ± SEM): 94.7 ± 1.77%
EC50 (hGIPR; cAMP, incubated at 37° C., 0.1% bovine casein (no human serum albumin), geometric mean, read-out: hGIPR EC50, nM (SEM, n)): 0.0168 nM
Ki [2]: 0.876 nM

CC[C@H](C)[C@H](NC(=O)[C@H](CCCN)NC(=O)[C@H](CC(=O)O)NC(=O)[C@H](CC(C)C)NC(=O)[C@](C)(CC(C)C)NC(=O)[C@@H](NC(=O)C(C)(C)NC(=O)[C@H](Cc1ccc(O)cc1)NC(=O)[C@H](CC(=O)O)NC(=O)[C@H](CO)NC(=O)[C@@H](NC(=O)[C@](C)(Cc1ccccc1F)NC(=O)[C@@H](NC(=O)CNC(=O)[C@H](CCC(=O)O)NC(=O)C(C)(C)NC(=O)[C@@H](N)Cc1ccc(O)cc1)[C@@H](C)O)[C@@H](C)O)[C@@H](C)CC)C(=O)N[C@@H](C)C(=O)N[C@@H](CCC(N)=O)C(=O)NC(C)(C)C(=O)N[C@@H](CCCN)C(=O)N[C@@H](Cc1ccccc1)C(=O)N[C@H](C(=O)N[C@@H](CCCCNC(=O)COCCOCCNC(=O)COCCOCCNC(=O)COCCOCCNC(=O)CC[C@H](NC(=O)CCCCCCCCCOc1ccc(C(=O)O)cc1)C(=O)O)C(=O)N[C@@](C)(Cc1ccc(O)cc1)C(=O)N[C@@H](CC(C)C)C(=O)N[C@H](C(=O)N[C@@H](CCCCNC(=O)COCCOCCNC(=O)COCCOCCNC(=O)COCCOCCNC(=O)CC[C@H](NC(=O)CCCCCCCCCOc1ccc(C(=O)O)cc1)C(=O)O)C(=O)NCC(=O)NCC(=O)N1CCC[C@H]1C(=O)N[C@@H](CO)C(=O)N[C@@H](CO)C(=O)NCC(=O)N[C@@H](C)C(=O)N1CCC[C@H]1C(=O)N1CCC[C@H]1C(=O)N1CCC[C@H]1C(=O)N[C@@H](CO)C(N)=O)[C@@H](C)CC)[C@@H](C)CC [Example 481]
EC50 (hGCGR; [4]): > 9950 nM
EC50 (hGCGR; [5]): > 9950 nM
Ki [1]: 0.0266 nM
Emax (hGIPR; [6]): 82.7%
Emax (hGIPR; HEK293, read-out: hGIPR Emax, % ± SEM, cAMP, 37° C., 0.1% bovine casein, percent of maximal response to GIP(1-42)NH2, arithmetic mean): 97.9%
EC50 (hGIPR; [7]): 0.0181 nM
Emax (hGLP-1R; HEK293, read-out: hGLP-1R Emax, % ± SEM, cAMP, 37° C., 0.1% bovine casein and 1.0% human serum albumin): 112%
Emax (hGLP-1R; [8]): 111%
EC50 (hGLP-1R; [9]): 0.279 nM
EC50 (hGLP-1R; hGLP-1R EC50, nM (SEM, n), 37° C., 0.1% bovine casein and 1.0% human serum albumin, geometric mean (SEM, n)): 6.16 nM

CCCC[C@H](NC(=O)[C@H](CC(=O)O)NC(=O)[C@H](CO)NC(=O)[C@@H](NC(=O)[C@](C)(Cc1ccccc1F)NC(=O)[C@@H](NC(=O)CNC(=O)[C@H](CCC(=O)O)NC(=O)C(C)(C)NC(=O)[C@@H](N)Cc1ccc(O)cc1)[C@@H](C)O)[C@@H](C)O)C(=O)N[C@@H](CO)C(=O)N[C@H](C(=O)N[C@@](C)(CC(C)C)C(=O)N[C@@H](CC(C)C)C(=O)N[C@@H](CC(=O)O)C(=O)N[C@@H](CCCN)C(=O)N[C@@H](CCC(N)=O)C(=O)N[C@@H](C)C(=O)N[C@@H](CCC(N)=O)C(=O)NC(C)(C)C(=O)N[C@@H](CCCN)C(=O)N[C@@H](Cc1ccccc1)C(=O)N[C@H](C(=O)N[C@@H](CCCCNC(=O)COCCOCCNC(=O)COCCOCCNC(=O)CC[C@H](NC(=O)CCCCCCCCCCCCC(=O)O)C(=O)O)C(=O)N[C@@](C)(Cc1ccc(O)cc1)C(=O)N[C@@H](CC(C)C)C(=O)N[C@H](C(=O)N[C@@H](CCCCNC(=O)COCCOCCNC(=O)COCCOCCNC(=O)CC[C@H](NC(=O)CCCCCCCCCCCCC(=O)O)C(=O)O)C(=O)NCC(=O)NCC(=O)N1CCC[C@H]1C(=O)N[C@@H](CO)C(=O)N[C@@H](CO)C(=O)NCC(=O)N[C@@H](C)C(=O)N1CCC[C@H]1C(=O)N1CCC[C@H]1C(=O)N1CCC[C@H]1C(=O)N[C@@H](CO)C(N)=O)[C@@H](C)CC)[C@@H](C)CC)[C@@H](C)CC [Example 490]
EC50 (hGCGR; cAMP, 37° C., 0.1% bovine casein (no human serum albumin), geometric mean, read-out: hGCGR EC50, nM (SEM, n)): > 9950 nM
EC50 (hGCGR; cAMP, 37° C., 0.1% bovine casein and 1.0% human serum albumin, geometric mean (SEM, n), read-out: hGCGR EC50, nM (SEM, n)): > 9950 nM
Ki [1, 3]: 0.0288 nM
Emax (hGIPR; HEK293, cAMP, 37° C., 0.1% bovine casein and 1.0% human serum albumin, percent of maximal response to GIP(1-42)NH2, read-out: hGIPR Emax, % ± SEM): 97.1%
Emax (hGIPR; HEK293, cAMP, 37° C., 0.1% bovine casein, percent of maximal response to GIP(1-42)NH2, arithmetic mean, read-out: hGIPR Emax, % ± SEM): 110%
EC50 (hGIPR; cAMP, 37° C., 0.1% bovine casein (no human serum albumin), geometric mean, read-out: hGIPR EC50, nM (SEM, n)): 0.0122 nM
EC50 (hGIPR; cAMP, 37° C., 0.1% bovine casein and 1.0% human serum albumin, geometric mean (SEM, n), read-out: hGIPR EC50, nM (SEM, n)): 0.976 nM
Emax (hGLP-1R; HEK293, cAMP, 37° C., 0.1% bovine casein, arithmetic mean, read-out: hGLP-1R Emax, % ± SEM): 115%
EC50 (hGLP-1R; 37° C., 0.1% bovine casein (no human serum albumin), geometric mean, read-out: hGLP-1R EC50, nM (SEM, n)): 0.143 nM

CC[C@H](C)[C@H](NC(=O)[C@H](CC(C)C)NC(=O)[C@](C)(Cc1ccc(O)cc1)NC(=O)[C@H](CCCCNC(=O)COCCOCCNC(=O)COCCOCCNC(=O)CC[C@H](NC(=O)CCCCCCCCCOc1ccc(C(=O)O)cc1)C(=O)O)NC(=O)[C@@H](NC(=O)[C@H](Cc1ccccc1)NC(=O)[C@H](CCCN)NC(=O)C(C)(C)NC(=O)[C@H](CCC(N)=O)NC(=O)[C@H](C)NC(=O)[C@H](CCC(N)=O)NC(=O)[C@H](CCCN)NC(=O)[C@H](CC(=O)O)NC(=O)[C@H](CC(C)C)NC(=O)[C@](C)(CC(C)C)NC(=O)[C@@H](NC(=O)C(C)(C)NC(=O)[C@H](Cc1ccc(O)cc1)NC(=O)[C@H](CC(=O)O)NC(=O)[C@H](CO)NC(=O)[C@@H](NC(=O)[C@](C)(Cc1ccccc1F)NC(=O)[C@@H](NC(=O)CNC(=O)[C@H](CCC(=O)O)NC(=O)C(C)(C)NC(=O)[C@@H](N)Cc1ccc(O)cc1)[C@@H](C)O)[C@@H](C)O)[C@@H](C)CC)[C@@H](C)CC)C(=O)N[C@@H](CCCCNC(=O)COCCOCCNC(=O)COCCOCCNC(=O)CC[C@H](NC(=O)CCCCCCCCCOc1ccc(C(=O)O)cc1)C(=O)O)C(=O)NCC(=O)NCC(=O)N1CCC[C@H]1C(=O)N[C@@H](CO)C(=O)N[C@@H](CO)C(=O)NCC(=O)N[C@@H](C)C(=O)N1CCC[C@H]1C(=O)N1CCC[C@H]1C(=O)N1CCC[C@H]1C(=O)N[C@@H](CO)C(N)=O [Example 492]
EC50 (hGCGR; [4]): > 9950 nM
EC50 (hGCGR; [5]): > 9950 nM
Ki [1]: 0.0264 nM
Emax (hGIPR; [6]): 88.7%
EC50 (hGIPR; [7]): 0.0125 nM
Emax (hGLP-1R; [8]): 117%
EC50 (hGLP-1R; [9]): 0.143 nM
